“Also recorded” adds a separate entry of the source. Marks after values point to notes of the source that are not given here.
Experiments:
[1] = for comparison; no reference given; cited from earlier work
NRP1 b1 domain = molecular target: T1, NRP1 b1 domain (Homo sapiens, UniProt O14786); assay: SPR binding to immobilized NRP1 b1 domain (Biacore 4000, CM5 chip); conditions: steady-state binding, 25 °C; mean ± SD; read-out: SPR NRP1 b1 domain equilibrium KD
T1 construct: with the purified recombinant NRP1 b1 domain immobilized on the chip; inferred from Ni-NTA capture), TEV-cleavable (cleaved yes); made in house; host or cells: E. coli Rosetta (DE3)
T1 sequence (O14786 275-424 limits assumed): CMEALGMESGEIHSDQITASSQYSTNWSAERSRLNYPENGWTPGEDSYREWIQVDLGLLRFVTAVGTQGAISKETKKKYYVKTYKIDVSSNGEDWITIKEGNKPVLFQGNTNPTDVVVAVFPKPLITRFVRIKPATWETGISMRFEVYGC
Protocol: Surface Plasmon Resonance experiments were performed using a Biacore 4000 instrument at a constant temperature of 25 °C. Sensor chips, buffer stock solutions, and immobilization reagents were purchased from GE Healthcare. Recombinant human NRP1-b1 was produced in-house and recombinant human NRP1-ECD (extracellular domain) was purchased from ACRO (catalogue number NR1-H5A228). All other reagents were obtained from Sigma.
PBS containing 0.05% surfactant P20 was used as the running buffer during immobilization. NRP1-b1 was immobilized onto a CM5 chip using random amine coupling. The four flow cells were treated in the same way to optimize throughput. In summary, spots 1 and 2 were activated with the coupling reagents EDC and NHS for 10 min. NRP1-b1 at a concentration of 20 μg/mL in 10 mM sodium acetate pH 5 was injected onto the surface for 10 and 5 min in spots 1 and 2, respectively to generate surfaces with high and low density. […] The unmodified spot 3 was used as a reference.
PBS buffer containing 0.05% surfactant P20 and 3% DMSO was used as the running buffer and sample dilution buffer throughout these experiments. Dose–responses were obtained using a 2-fold sample dilution from 16 μM to 31 nM, using an injection time of 60 s. Surface regeneration between injections was not necessary, but a wash step with 1 M NaCl was included after injection of the highest concentration sample for each compound.
Binding curves were corrected for variations in DMSO concentration and normalized by molecular weight. Binding results to high and low-density surfaces were processed independently and the average ± SD is presented. K Ds reported are derived from steady-state binding responses and therefore correspond to the equilibrium binding affinity of the compounds.

[2] = tested on: T180/Y182 phosphorylated p38 (P-p38) in retinal endothelium; assay: VEGFA-induced p38 phosphorylation in ex vivo mouse retina (immunostaining); type: cell-based
Protocol: Retinae from C57Bl/6J mice were fixed in 4% formaldehyde in PBS for 1 h and washed three times with PBS. After 1 h in blocking buffer (3% Triton X-100, 1%1% Tween and 0.5% BSA in 2× PBS), retinae were immunostained by incubation with rabbit anti-P-p38 MAPK (Thr180/Tyr182) antibody (Cell Signaling) and biotin-conjugated Isolectin B4 (IB4, Merck) overnight at 4 °C, followed by Alexa Fluor 555–conjugated goat antirabbit antibodies (Invitrogen) and Alexa Fluor 488-conjugated streptavidin (Invitrogen) respectively for 1 h at rt. Images were acquired with a Zeiss Axioskop 2 microscope, using a ph3 Plan-Apochromat 63×/1.40 oil objective, Hamamatsu camera and the HCImage software. Each image was acquired as an RGB color image and then processed with ImageJ software version 1.52a (NIH Bethesda). Channels were split to separate the IB4 staining (green channel) from the P-p38 staining (red channel). The threshold function was used on the IB4 image to determine the area of the vessels and to generate a mask that was restored in the red channel image to measure the area of the vessels positive to P-p38 staining. The P-p38 staining area was normalized against the area stained with IB4. Three retinae from three different mice per condition were used for analysis. One-way ANOVA was used to compare the different treatments.

[3] = tested on: P-p38 in human brain endothelial cell line hCMEC/D3; assay: p38 phosphorylation in hCMEC/D3 cells (immunoblotting); type: cell-based
Protocol: Cell lysates of the human brain endothelial cell line hCMEC/D3 were prepared in RIPA buffer containing 0.1% SDS, protease inhibitor cocktail 2 and phosphatase inhibitor cocktail (Sigma-Aldrich). Proteins were separated by SDS-PAGE and transferred to nitrocellulose by wet electrotransfer. Membranes were blocked with 5% milk in Tris-buffered saline (TBS) overnight at 4 °C and then incubated with the appropriate primary antibody diluted in TBS containing 0.1% Tween-20 and 1% BSA for 2 h and 30 min at rt; the primary antibodies used were specific for phospho P-p38, p38 (1:1000; Cell Signaling Technology) and GADPH (1:10000; Merck). Membranes were washed with 0.1% Tween-20 in TBS and then incubated with goat antimouse or goat antirabbit horseradish peroxidase (HRP)-conjugated IgG (GE Healthcare) diluted 1:10,000 or 1:5000, respectively, with 0.1% Tween-20, 1% BSA in PBS. Membranes were developed using the ECL reagents (Roche) and images were acquired with the Bio-Rad ChemiDoc MP Imaging System and the Bio-Rad Image Lab software (version 6.0.1). Protein bands were quantified using ImageJ software version 1.52a (NIH Bethesda), whereby signal intensity was normalized to signal intensity from GADPH from the same sample as a loading control. Phosphorylation levels were normalized against the total levels of p38. Densitometric quantification of three independent immunoblots was determined by changes in protein or phosphoprotein content normalized to GADPH total protein loading controls, with values expressed as fold increase. Data are shown as mean ± SD. Statistical analysis included one-way ANOVA with significance levels set at 0.05, followed by posthoc Dunnett’s tests.

[4] = tested on: total Na+ currents in rat DRG neurons; assay: Whole-cell patch-clamp of Na+ currents in dissociated DRG neurons; type: cell-based; conditions: for V 1/2 activation, total Na+ / V 1/2 inactivation, total Na+: mean ± SEM (n cells)
Protocol: Recordings were obtained from acutely dissociated DRG neurons obtained from female rats as described earlier. Patch-clamp recordings were performed at room temperature (22–24 °C). Currents were recorded using an EPC 10 Amplifier-HEKA (HEKA Elektronik, Ludwigshafen, Germany) linked to a computer with Patchmaster software.
To determine the effect of VEGFA application on voltage-gated sodium currents, we incubated DRG neurons for 30 min with recombinant rat VEGFA, 1 nM (Cat#P4853, Abnova, Taipei, Taiwan) before whole-cell patch-clamp recordings. […] For the control condition, DRG neurons were incubated for 30 min with DMSO at a final concentration of 0.1%.
For Na^+ current (I Na+) recordings, the external solution contained (in mM): 130 NaCl, 3 KCl, 30 tetraethylammonium chloride, 1 CaCl2, 0.5 CdCl2, 1 MgCl2, 10 D-glucose and 10 HEPES (pH 7.3 adjusted with NaOH, and mOsm/L = 315). Patch pipettes were filled with an internal solution containing (in mM): 140 CsF, 1.1Cs-EGTA, 10 NaCl, and 15 HEPES (pH 7.3 adjusted with CsOH, and mOsm/L = 300). Peak Na^+ current was acquired by applying 150 ms voltage steps from – 70 to +60 mV in 5-mV increments from a holding potential of – 60 mV to obtain the current–voltage (I–V) relation.
Normalization of currents to each cell’s capacitance (pF) was performed to allow for collection of current density data. For I–V curves, functions were fitted to data using a nonlinear least-squares analysis. I–V curves were fitted using double Boltzmann functions: f=a+g1/(1+exp((x−V1/21)/k1))+g2/(1+exp(−(x−V1/22)/k2)) where x is the membrane potential, V 1/2 is the midpoint potential and k is the corresponding slope factor for single Boltzmann functions. Double Boltzmann fits were used to describe the shape of the curve, not to imply the existence of separate channel populations. Numbers 1 and 2 simply indicate first and second midpoints; a along with g are fitting parameters.
Activation curves were obtained from the I–V curves by dividing the peak current at each depolarizing step by the driving force according to the equation: G = I/(V mem – E rev), where I is the peak current, V mem is the membrane potential and E rev is the reversal potential. The conductance (G) was normalized against the maximum conductance (G max). Steady-state inactivation (SSI) curves were obtained by applying an H-infinity protocol that consisted of 1-s conditioning prepulses from −120 to +10 mV in 10-mV increments followed by a 200 ms test pulse to +10 mV. Inactivation curves were obtained by dividing the peak current recorded at the test pulse by the maximum current (I max). Activation and SSI curves were fitted with the Boltzmann equation.

[5] = tested on: VEGFA-induced aversion to mechanical stimuli in rats; assay: Conditioned place aversion (CPA) to 10 g vF stimulation after VEGFA; type: in vivo, rat
Protocol: (§1) The procedure was performed as reported previously. Briefly, rats were gently restrained in a fabric cloth and given an intraplantar injection in the hind-paw containing VEGFA165 (10 nM) and compound (EG00229 or 12h, at 30 or 10 μM) alone or in combination in 50 μL of PBS vehicle (NaCl 137 mM, KCl 2.5 mM, Na2HPO4 10 mM, and KH2PO4 1.8 mM), using a 31G needle.
The experiments were conducted in a two-chamber device based on the protocols from and as previously described. The protocol includes 4 × 10 min of sequential tests of preconditioning (10 min), conditioning (2 × 10 min) and testing (10 min). During preconditioning, the animal is allowed free access to two connected chambers (30 × 30 × 19 cm), each associated with a scented lip-balm applied to the walls. Immediately following preconditioning, a divider was applied between the chambers, and the rats were conditioned to either stimuli or no-stimuli for 10 min in each chamber. The stimuli consisted of repeated stimulation with a 10 g VF-filament every 30 s for the 10 min that the subject was contained in that chamber, while no stimuli (NS) was applied in the other chamber. The order and side of conditioning was alternated between subjects. Following the conditioning, the divider was removed, and the rat was allowed free access to both chambers for the 10 min test. Animal movements in each chamber were recorded by a camera above, and the duration of time spent in each chamber was recorded during preconditioning and test phase. Decreased time spent in a chamber during the test versus preconditioning indicated avoidance for that chamber and was calculated as a CPA-score: time in VF-chamber during preconditioning – time in VF-chamber during test.

[6] = tested on: VEGFA-induced mechanical allodynia in rats; assay: VEGFA-induced mechanical allodynia (von Frey), intraplantar injection; type: in vivo, rat
Protocol: as §1

[7] = 30 μM, 15 min prior to VEGFA165 stimulation

Q: What does the source list for `NC(N)=NCCCC(NC(=O)c1sccc1NS(=O)(=O)c1cccc2nsnc12)C(=O)O` (centres unmarked) [EG00229, reference compound]?
A: half-life [1]: 34.8 min; Kd (NRP1 b1 domain): 2.71 ± 0.13 µM; p38 phosphorylation when added alone ([2]; 30 μM alone, 5 min): induced p38 phosphorylation; effect on VEGFA-induced p38 phosphorylation in retinal endothelium [2, 7]: prevented VEGFA-induced p38 phosphorylation; p38 phosphorylation when added alone ([3]; 30 μM alone, 5 min): induced p38 kinase phosphorylation; effect on VEGFA-induced p38 phosphorylation [3, 7]: prevented VEGFA-induced p38 phosphorylation; effect on Na+ currents, alone ([4]; 30 μM alone, 30 min): Neither EG00229 nor 12h alone had any obvious effect; effect on VEGFA-induced increase in Na+ currents and current density ([4]; 30 μM, then VEGFA165 1 nM 30 min, small-sized DRG neurons): equally reduced; V 1/2 activation, total Na+ ([4]; compound 30 μM + VEGFA): –16.384 ± 0.773 (15) ^b mV; V 1/2 inactivation, total Na+ ([4]; compound 30 μM + VEGFA): –49.707 ± 2.554 (15) mV; V 1/2 activation, total Na+ ([4]; compound alone, 30 μM): –15.229 ± 0.972 (10) ^b mV; V 1/2 inactivation, total Na+ ([4]; compound alone, 30 μM): –49.108 ± 2.415 (10) mV; effect on VEGFA-induced aversion in CPA-paradigm ([5]; 10 μM, male rats): had no effect; VEGFA-induced aversion (time in vF-conditioned chamber) ([5]; 30 μM coinjected with VEGFA 10 nM, male and female rats): prevented the stimulus-aversion from VEGFA in both sexes; also recorded: the aversion was prevented; CPA-score vs VEGFA/vehicle ([5]; 30 μM, female rats): showed a significant effect; effect on VEGFA-induced mechanical allodynia ([6]; 10 μM coinjected with VEGFA, male rats): produced significant antinociceptive effects; effect on VEGFA-induced mechanical allodynia (paw withdrawal threshold, AUC 0-6 h) ([6]; 30 μM coinjected with VEGFA165 10 nM, 50 μL intraplantar, male and female rats): comparable antinociceptive effects in males and females

Reference: publication PMC12624434 (ACS Pharmacology & Translational Science, 2025)
